The values that follow come from patent US8822447B2, “Indazole compounds useful as ketohexokinase inhibitors” (Janssen Pharmaceutica NV, priority 2010, dated 2014).

SMILES strings stand for the structures. Structures can show the parent of a compound that is named as a salt. A value given as a limit tells only on which side of the number the result lay.

This assay deals with KHK (Homo sapiens (Human), UniProt P50053). Description: In Vitro KHK Enzyme Assay (HTMS).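 Note: primary screen measuring inhibition of KHK-catalysed conversion of D-fructose into fructose 1-phosphate.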 Format: biochemical. Conditions: 200 μM fructose, 100 μM ATP, 2 nM KHK, 60 min at 25° C.; Fructose-1-P detected by high throughput mass spectrometry.
KHK, sequence (P50053 whole entry): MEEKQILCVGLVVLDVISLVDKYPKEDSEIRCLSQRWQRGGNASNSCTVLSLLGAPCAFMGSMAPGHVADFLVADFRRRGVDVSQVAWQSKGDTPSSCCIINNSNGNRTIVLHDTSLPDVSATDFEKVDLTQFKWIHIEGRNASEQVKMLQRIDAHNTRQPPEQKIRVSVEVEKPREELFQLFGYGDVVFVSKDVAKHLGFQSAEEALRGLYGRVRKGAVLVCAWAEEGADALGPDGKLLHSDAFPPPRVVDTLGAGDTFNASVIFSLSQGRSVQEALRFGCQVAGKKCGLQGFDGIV

Protocol: An enzymatic assay was developed to measure KHK-mediated conversion of D-fructose to Fructose-1-P (F-1-P) using High Throughput Mass Spectroscopy (HTMS) as a means of product detection. This assay served as a primary screen to evaluate the ability to inhibit KHK enzyme activity and it has been adapted to high throughput mass spectrometry (HTMS, BioTrove RapidFire™) format for higher throughput.
The compounds to be tested were dosed in 12-points concentration from 511 μM to 0.5 μM. […] The assay was carried out in 384-well plate format.

The molecule `CCc1nn(-c2ccccc2)c2cc(N3CCN(C4CNC4)CC3)ccc12` [Compound 44, 6-(4-(azetidin-3-yl)piperazin-1-yl)-3-ethyl-1-phenyl-1H-indazole hydrochloride] yielded a concentration for half-maximal inhibition (IC50) of 2.4 µM. In the case of `CCc1nn(-c2ccccc2)c2cc(N3CCN(C4CCNC4)CC3)ccc12` (centres unmarked) [Compound 45, 3-Ethyl-1-phenyl-6-(4-(pyrrolidin-3-yl)piperazin-1-yl)-1H-indazole hydrochloride] it was 2.06 µM; in that of `CCc1nn(-c2ccccc2)c2cc(N3CCN(C4CCNCC4)CC3)ccc12` [Compound 46, 3-Ethyl-1-phenyl-6-(4-(piperidin-4-yl)piperazin-1-yl)-1H-indazole hydrochloride], 0.56 µM.

Regarding `CCc1nn(-c2ccccc2)c2cc(N3CCN(c4ccncc4)CC3)ccc12` [Compound 47, 3-Ethyl-1-phenyl-6-(4-(pyridin-4-yl)piperazin-1-yl)-1H-indazole hydrochloride], it took 3.51 µM to reach half-maximal inhibition (IC50).

As for `CCc1nn(-c2ccccc2)c2cc(N3CCN(C4CCNC4)C3=O)ccc12` (centres unmarked) [Compound 48, 1-(3-Ethyl-1-phenyl-1H-indazol-6-yl)-3-(pyrrolidin-3-yl)imidazolidin-2-one hydrochloride], the IC50 was 2.37 µM. In the case of `CCc1nn(-c2ccccc2)c2cc(N3CCN(C4CCNCC4)C3=O)ccc12` [Compound 49, 1-(3-Ethyl-1-phenyl-1H-indazol-6-yl)-3-(piperidin-4-yl)imidazolidin-2-one hydrochloride], 1.8 µM corresponded to half-maximal inhibition (IC50). The result for `CCc1nn(-c2ccccc2)c2cc(N3CC4CNCC4C3)ccc12` (centres unmarked) [Compound 50, 3-Ethyl-6-(hexahydropyrrolo[3,4-c]pyrrol-2(1H)-yl)-1-phenyl-1H-indazolehydrochloride] reads 5.36 µM; that for `CCc1nn(-c2ccccc2)c2cc(N3CCC4(CCNC4)C3)ccc12` (centres unmarked) [Compound 51, 6-(2,7-Diaza-spiro[4.4]non-2-yl)-3-ethyl-1-phenyl-1H-indazole hydrochloride], 1.47 µM. In the case of `CCc1nn(-c2ccccc2)c2cc(-c3ccc(N4CCNCC4)cc3)ccc12` [Compound 52, 3-Ethyl-1-phenyl-6-(4-(piperazin-1-yl)phenyl)-1H-indazole hydrochloride] it was 9.8 µM; in that of `CCc1nn(-c2ccccc2)c2cc(N3CCN(C)CC3)ccc12` [Compound 54, 3-Ethyl-6-(4-methylpiperazin-1-yl)-1-phenyl-1H-indazole], 4.52 µM.

Molecule `CCc1nn(-c2ccccc2)c2cc(N3CCN(CC)CC3)ccc12` [Compound 55, 3-Ethyl-6-(4-ethylpiperazin-1-yl)-1-phenyl-1H-indazole] gave an IC50 of 11.5 µM. The result for `CCc1nn(-c2ccccc2)c2cc(N3CCNC(C)C3)ccc12` (centres unmarked) [Compound 56, 3-Ethyl-6-(3-methylpiperazin-1-yl)-1-phenyl-1H-indazole] reads 0.86 µM.

`Cc1nn(-c2ccccc2)c2cc(-c3ccc(N4CCNCC4)cc3)ccc12` [Compound 58, 3-Methyl-1-phenyl-6-(4-piperazin-1-yl-phenyl)-1H-indazole hydrochloride] had an IC50 of 7.5 µM. In the case of `Cc1nn(-c2ccccc2)c2cc(N3CCNCC3)ccc12` [Compound 59, 3-Methyl-1-phenyl-6-(piperazin-1-yl)-1H-indazole] it was 1.28 µM; in that of `Cc1nn(-c2ccccc2)c2cc(N3CC(N4CCNCC4)C3)ccc12` [Compound 60, 3-Methyl-1-phenyl-6-(3-(piperazin-1-yl)azetidin-1-yl)-1H-indazole hydrochloride], 2.3 µM; in that of `Cc1nn(-c2ccccc2)c2cc(N3CCC(N4CCNCC4)C3)ccc12` (centres unmarked) [Compound 61, 3-Methyl-1-phenyl-6-(3-(piperazin-1-yl)pyrrolidin-1-yl)-1H-indazole hydrochloride], 1.01 µM. In the case of `Cc1nn(-c2ccccc2)c2cc(N3CCN(C4CNC4)CC3)ccc12` [Compound 62, 6-(4-(Azetidin-3-yl)piperazin-1-yl)-3-methyl-1-phenyl-1H-indazole hydrochloride] it was 1.6 µM; in that of `Cc1nn(-c2ccccc2)c2cc(N3CCN(C4CCNC4)CC3)ccc12` (centres unmarked) [Compound 63, 3-Methyl-1-phenyl-6-(4-(pyrrolidin-3-yl)piperazin-1-yl)-1H-indazole hydrochloride], 3.75 µM. The result for `Cc1nn(-c2ccccc2)c2cc(N3CCN(C4CCNCC4)CC3)ccc12` [Compound 64, 3-Methyl-1-phenyl-6-(4-(piperidin-4-yl)piperazin-1-yl)-1H-indazole hydrochloride] reads 9.06 µM.

On to `Cc1nn(-c2ccccc2)c2cc(N3CCN(c4ccncc4)CC3)ccc12` [Compound 65, 3-Methyl-1-phenyl-6-(4-(pyridin-4-yl)piperazin-1-yl)-1H-indazole hydrochloride], for which the IC50 was found to be 7.73 µM. Consider `Cc1nn(-c2ccccc2)c2cc(NC(=O)c3ccc4[nH]cnc4c3)ccc12` [Compound 66, N-(3-methyl-1-phenyl-1H-indazol-6-yl)-1H-benzo[d]imidazole-5-carboxamide], for which the IC50 stood at 0.16 µM. In the case of `Cc1nn(-c2ccccc2)c2cc(N3CCN(C4CCNCC4)C3=O)ccc12` [Compound 67, 1-(3-Methyl-1-phenyl-1H-indazol-6-yl)-3-(piperidin-4-yl)imidazolidin-2-one hydrochloride] it was 1.23 µM; in that of `Cc1nn(-c2ccccc2)c2cc(N3CCN(C)CC3)ccc12` [Compound 68, 3-Methyl-6-(4-methylpiperazin-1-yl)-1-phenyl-1H-indazole], 1.57 µM. Molecule `CCN1CCN(c2ccc3c(C)nn(-c4ccccc4)c3c2)CC1` [Compound 69, 6-(4-Ethylpiperazin-1-yl)-3-methyl-1-phenyl-1H-indazole 2,2,2-trifluoroacetic acid salt] registered an IC50 of 14.2 µM. `Cc1nn(-c2ccccc2)c2cc(N3CCN(C(C)C)CC3)ccc12` [Compound 70, 6-(4-Isopropylpiperazin-1-yl)-3-methyl-1-phenyl-1H-indazole formic acid salt]: the 50% inhibitory concentration (IC50) worked out at 14.7 µM. In the case of `Cc1nn(-c2ccccc2)c2cc(N3CCNC(C)C3)ccc12` (centres unmarked) [Compound 71, 3-Methyl-6-(3-methylpiperazin-1-yl)-1-phenyl-1H-indazole formic acid salt] it was 0.4 µM; in that of `Cc1nn(-c2ccccc2)c2cc(N3CCC(N)C3)ccc12` (centres unmarked) [Compound 72, 1-(3-Methyl-1-phenyl-1H-indazol-6-yl)pyrrolidin-3-amine formic acid salt], 0.68 µM; in that of `COc1nn(-c2ccccc2)c2cc(N3CC(N4CCNCC4)C3)ccc12` [Compound 73, 3-Methoxy-1-phenyl-6-(3-(piperazin-1-yl)azetidin-1-yl)-1H-indazole hydrochloride], 0.39 µM.

As to `COc1nn(-c2ccccc2)c2cc(N3CCN(C4CNC4)CC3)ccc12` [Compound 74, 6-(4-(Azetidin-3-yl)piperazin-1-yl)-3-methoxy-1-phenyl-1H-indazole hydrochloride], it took 5.96 µM to reach half-maximal inhibition (IC50). In the case of `COc1nn(-c2ccccc2)c2cc(N3CCN(C4CCNC4)CC3)ccc12` (centres unmarked) [Compound 75, 3-Methoxy-1-phenyl-6-(4-(pyrrolidin-3-yl)piperazin-1-yl)-1H-indazole hydrochloride] it was 0.31 µM; in that of `COc1nn(-c2ccccc2)c2cc(N3CCN(C4CCNCC4)CC3)ccc12` [Compound 76, 3-Methoxy-1-phenyl-6-(4-(piperidin-4-yl)piperazin-1-yl)-1H-indazole hydrochloride], 1.38 µM; in that of `COc1nn(-c2ccccc2)c2cc(N3CCN(c4ccncc4)CC3)ccc12` [Compound 77, 3-Methoxy-1-phenyl-6-(4-(pyridin-4-yl)piperazin-1-yl)-1H-indazole hydrochloride], 8.1 µM. In the case of `COc1nn(-c2ccccc2)c2cc(-c3ccc(N4CCNCC4)cc3)ccc12` [Compound 78, 3-Methoxy-1-phenyl-6-(4-(piperazin-1-yl)phenyl)-1H-indazole hydrochloride] it was 4.42 µM. The result for `COc1nn(-c2ccccc2)c2cc(-c3ccc(-n4ccnc4)cc3)ccc12` [Compound 79, 6-(4-(1H-Imidazol-1-yl)phenyl)-3-methoxy-1-phenyl-1H-indazole] reads over 30 µM; that for `COc1nn(-c2ccccc2)c2cc(NC(=O)c3ccc4[nH]cnc4c3)ccc12` [Compound 80, N-(3-methoxy-1-phenyl-1H-indazol-6-yl)-1H-benzo[d]imidazole-5-carboxamide], 4.5 µM; that for `COc1nn(-c2ccccc2)c2cc(N3CCN(C4CCNCC4)C3=O)ccc12` [Compound 81, 1-(3-Methoxy-1-phenyl-1H-indazol-6-yl)-3-(piperidin-4-yl)imidazolidin-2-one hydrochloride], 30 µM. `CCc1nn(-c2ccccc2)c2nc(N3CCN(C4CNC4)CC3)ncc12` [Compound 82, 6-(4-Azetidin-3-yl-piperazin-1-yl)-3-ethyl-1-phenyl-1H-pyrazolo[3,4-d]pyrimidine]: the IC50 amounted to 23 µM. In the case of `CCc1nn(-c2ccccc2)c2nc(N3CCN(c4cccnc4)CC3)ncc12` [Compound 83, 3-Ethyl-1-phenyl-6-(4-(pyridin-3-yl)piperazin-1-yl)-1H-pyrazolo[3,4-d]pyrimidine trifluoroacetic acid] it was over 30 µM; in that of `Cc1nn(-c2ccccc2)c2nc(C3CCN(c4cccnc4)CC3)nc(O)c12` [Compound 84, 3-Methyl-1-phenyl-6-(3,4,5,6-tetrahydro-2H-[1,3′]bipyridinyl-4-yl)-1H-pyrazolo[3,4-d]pyrimidin-4-ol], over 30 µM; in that of `Cc1nn(-c2ccccc2)c2nc(C3CCCN(C4CNC4)C3)nc(O)c12` (centres unmarked) [Compound 85, 6-(1-Azetidin-3-yl-piperidin-3-yl)-3-methyl-1-phenyl-1H-pyrazolo[3,4-d]pyrimidin-4-ol], 7.45 µM. Molecule `Cc1nn(-c2ccccc2)c2nc(C3CCNCC3)nc(O)c12` [Compound 86, 3-Methyl-1-phenyl-6-piperidin-4-yl-1H-pyrazolo[3,4-d]pyrimidin-4-ol hydrochloride] returned an IC50 of 6.1 µM.

What is called IC50 is the concentration that inhibits the measured activity by half.
